Read-outs that look alike come from different tables or passages of the source.
Tests used:
[1] = test system: K1735M4 metastatic melanoma cells; conditions: for Tumor Cell Adhesion, Adherent Cells: melanoma cells, one hour
Protocol: The cells were cultured in Dulbecco's Modified Eagle's Medium containing 5% heat inactivated fetal calf serum. The cultures were grown in 37° C. incubators with a humidified atmosphere containing 5% CO2. Cells were subcultured twice weekly by releasing cells gently from the flask, using 0.05% trypsin and 1 mM EDTA.
The melanoma cells were pulsed in the same fashion as the endothelial cells described hereinabove, except that 2 μCi/ml ^3 HTd(tritiated thymidine) was added to each culture instead of amino acids. The labeled cells were harvested as described for the endothelial cells. The cell adhesion assay was identical to that described hereinabove for the bovine aortic endothelial cell assay.

[2] = Heparin-binding assay on nitrocellulose sheets
Protocol: The assay for heparin binding utilizes nitrocellulose sheets as substrata to bind peptides or proteins to be tested for heparin binding activity. Peptides I and II or intact fibronectin (fn) were solubilized in 50 mM (NH4)2 CO3 and diIuted to the concentrations indicated in FIGS. 2 and 3. Nitrocellulose sheets which had been presoaked in 50 mM NH4 CO3 were placed in a 96 well dot blot apparatus (Bethesda Research Laboratories Bethesda, Md.), and 250 μl of various concentrations of each peptide were aspirated through the wells. Each well was then washed three times with binding buffer (10 mM Tris-HCl, pH 8.0, 0.15 M NaCl), and the filters were removed and allowed to air dry overnight. The filters were then equilibriated for 5 minutes at room temperature in binding buffer which contained 10 mM CaCl2. ^3 H-heparin was then diluted to a concentration of 50,000 cpm/ml in binding buffer (with Ca^++), and nitrocellulose sheets were incubated in the presence of this mixture for 2 hours. The filters were then washed four times with binding buffer, and air dried. The individual spots of samples were cut out of the nitrocellulose and bound heparin was quantitated with a liquid scintillation counter.

[3] = test system: Bovine aortic endothelial cells; assay: Aortic endothelial cell adhesion assay; format: cell-based; conditions: coating concentration 5 μg/ml, 90 minutes
Protocol: Bovine aortic encothelial cells were isolated according to the following protocol. Aortas were obtained from a local slaughterhouse, washed in cold phosphate buffered saline (PBS) (136 mM NaCI, 2.6 mM KCl, 15.2 mM Na2 HPO4, pH 7.2) and processed within 2 hours. Crude collagenase (CLS III, 125-145 units per mg dry weight, Cooper Biomedical) was used at 2 mg/ml in Dulbecco's modified Eagle's medium (DMEM) (GIBCO). The vessel was clamped at the distal end, filled with the collagenase-PBS solution and digestion was carried out for 10 minutes. The lumenal contents were harvested, followed by the addition of fresh collagenase for two additional 10-minute periods. The enzyme-cell suspensions were added to an equal volume of DMEM containing 10% fetal bovine serum (FBS) to inhibit the enzyme and spun in a centrifuge at 400×g for 10 minutes. The resulting cell pellet was resuspended in DMEM containing 10% FBS, 100 units/ml of penicillin G, 100 μg/ml of streptomycin and 100 μg/ml of crude fibroblast growth factor. Cells are cultured in 75 cm^2 flasks in a humidified 5% CO2 atmosphere at 37° C. Cultures were fed twice a week with the same medium and cells were used in assays when approximately 75% confluent. […]
Adhesion was measured using 96 well microtiter plates adsorbed with fibronectin or peptides I and II. […] The solubilized cells were then quantitated using a liquid scintillation counter. […]

[4] = test system: CNS neurons from spinal cords of 6-day chick embryos; assay: Neurite outgrowth assay, CNS neurons; format: cell-based
Protocol: Peptides I, II, IIa, III, CSI or intact fibronectin were diluted in Voller's buffer (0.05M Carbonate buffer, pH 9.6) and 100 μl of each concentration was dipensed into 96 well tissue culture plates in triplicate. The plates were then placed in a sterile hood overnight to evaporate the buffer and to dry the peptides onto the plate. The following morning, 200 μl of phosphate-buffered saline (PBS) containing 5 mg/ml bovine serum albumin (PBS/BSA) were added to each well and the plates were incubated for an additional 3 hours. At that point, the PBS/BSA was aspirated and cells in the appropriate media were added to each well.
Embryonic CNS nerve cell cultures were prepared by the method of Rogers et al., Devel. Biol., 98, 212-220 (1983). Briefly, spinal cords from 6-day chick embryos were isolated and their dorsal halves removed and placed Ca^++ -Mg^++ free (CMF) Hank's balanced salt solution for 10 minutes at 37° C. Only the ventral portions, containing predominantly motor neurons, were prepazed for culture. The cords were then dissociated in 0.25% trypsin (Bactotrypsin, Difco) in CMF Hanks for 25 minutes at 37° C. […] The number of neurons with neurites was quantitated by randomly sampling 10 fields with the aid of a dissecting microscope. […]

[5] = Solid phase heparin-binding assay on Immulon C plates
Protocol: Both peptides IIa and CS I were then compared for relative heparin-binding activity. Plastic Immulon C plates (Dynatech, Alexandria, Va.) were adsorbed with 100 μl in triplicate) of the indicated levels of peptides IIa, CS I or BSA as described. The ability of the 33 kD fragment to bind heparin was also determined, for comparison, although due to the relative size of this fragment compared with the peptides, different coating concentrations were used. The actual coating levels of the 33 kD fragment were 4, 20, 100 and 500 μg/ml. Following the blocking of nonspecific binding sites with BSA, the ability of these various substrata to bind ^3 H-heparin was determined by the addition of approximately 4,000 disintegrations per minute (dpm) of this ligand. All conditions of the assay were as described in U.S. patent application Ser. No. 89,073, the disclosure of which is incorporated by reference herein.
The three peptides derived from peptide Ila and intact peptide IIa, were adsorbed to Immulon C plates at the indicated concentrations (100 μl/ well) in triplicate and tested for the ability to bind ^3 H-heparin as described hereinabove. The results of this study are summarized on FIG. 5. […] Rather, a specific primary structure is crucial for this activity. […]

Row | Substance | Tumor Cell Adhesion, Adherent Cells ([1]; coating concentration 1 μg/ml) [Counts Per Minute] | Tumor Cell Adhesion, Adherent Cells ([1]; coating concentration 10 μg/ml) [Counts Per Minute] | Tumor Cell Adhesion, Adherent Cells ([1]; coating concentration 50 μg/ml) | Tumor Cell Adhesion, Adherent Cells ([1]; coating concentration 100 μg/ml) [Counts Per Minute] | 3H-heparin binding (in words) [2] | Concentration at which maximum 3H-heparin binding was observed [2] | Adherent Cells [3] | Promotion of melanoma cell adhesion (in words) [1] | Melanoma Cell Adhesion, Percent Adhesion ([1]; concentration 80 μg/ml) [%] | Melanoma Cell Adhesion, Percent Adhesion ([1]; concentration 400 μg/ml) [%] | Promotion of neurite extension by CNS neurons (in words) [4] | 3H-heparin binding (in words) [5]
1 | Fibronectin | 4700 | 7900 | 11,000 Counts Per Minute | 9700 | bound ^3 H-heparin in a concentration dependent manner | 10^-6 M | 13,714 Counts Per Minute | – | – | – | – | –
2 | asp-glu-leu-pro-gln-leu-val-thr-leu-pro-his-pro-asn-leu-his-gly-pro-glu-ile-leu-asp-val-pro-ser-thr [Peptide CS I, reference compound] | – | – | – | – | – | – | – | promoted the adhesion of melanoma cells in culture | 71.7 | 71.0 | CNS neurons appeared to be preferably stimulated by peptide CS I | failed to bind to heparin at any concentration that was tested

Reference: patent US5171271A, “Polypeptides with fibronectin activity” (Regents of the University of Minnesota, priority 1991, dated 1992)
